Assay [1] concerns ISC-enriched organoids. Briefly: Primary screen, 384-well 2.5-D organoid differentiation (ENR+CD, 6 days): basal lysozyme secretion (LYZ.NS). The assay is classed as cell-based, murine. The conditions noted are these: for Dose.FC.LYZ.NS / Z.LYZ.NS (standard z score) / Dose.FC.LYZ.NS (log 2 fold change): primary screen; for Dose.FC.LYZ.NS: FC vs plate median; for Z.LYZ.NS: standard z score of FC; for Dose.FC.LYZ.NS (log 2 fold change): vs plate median. An excerpt: (§1) High-throughput screening.

For assay [2], the system named is ISC-enriched organoids. Briefly: Primary screen, 384-well 2.5-D organoid differentiation (ENR+CD, 6 days): carbachol-induced lysozyme secretion (LYZ.S). The assay is classed as cell-based, murine. The conditions noted are these: primary screen; for Dose.FC.LYZ.S: FC vs plate median; for Dose.FC.LYZ.S (log 2 fold change): vs plate median.
Text: as §1

The test system of assay [3] is ISC-enriched organoids. Briefly: Primary screen, 384-well 2.5-D organoid differentiation (ENR+CD, 6 days, Target Selective Inhibitor Library, vs whole-plate median): ATP (CellTiter-Glo 3D, CTG). The conditions noted are these: for Dose.FC.CTG / Z.CTG (standard z score) / Dose.FC.CTG (log 2 fold change): primary screen; for Dose.FC.CTG: FC vs plate median; for Z.CTG: standard z score of FC; for Dose.FC.CTG (log 2 fold change): vs plate median.

We go through three compounds from patent US20230398130A1, “METHODS AND COMPOSITIONS FOR DIFFERENTIATING STEM CELLS” (Massachusetts Institute of Technology, priority 2020, published 2023).

The structures appear in SMILES notation.

Turning to `Cc1[nH]c2ccccc2c1CCNCc1ccc(/C=C/C(=O)NO)cc1` [Panobinostat (LBH589)], the Dose.FC.LYZ.NS is listed as 0.002 log 2 fold change in the assay with ISC-enriched organoids [1] (Dose 0.08 uM), −0.027 log 2 fold change in the assay with ISC-enriched organoids [1] (Dose 0.40 uM), −0.153 log 2 fold change in the assay on ISC-enriched organoids [1] (Dose 2.00 uM) and −0.217 log 2 fold change in the assay with ISC-enriched organoids [1] (Dose 10.00 uM). Moreover, the Z.LYZ.NS with ISC-enriched organoids [1] (Dose 0.08 uM) is listed as 0.014; with ISC-enriched organoids [1] (Dose 0.40 uM), −0.232; in the assay on ISC-enriched organoids [1] (Dose 2.00 uM) it was −1.329; in the assay with ISC-enriched organoids [1] (Dose 10.00 uM) it was −1.891. Moreover, the Dose.FC.LYZ.S in the assay on ISC-enriched organoids [2] (Dose 0.08 uM) is recorded as −0.034 log 2 fold change; in the assay on ISC-enriched organoids [2] (Dose 0.40 uM), −0.042 log 2 fold change; in the assay with ISC-enriched organoids [2] (Dose 2.00 uM), −0.285 log 2 fold change; in the assay with ISC-enriched organoids [2] (Dose 10.00 uM), −0.320 log 2 fold change. In addition, the Dose.FC.CTG is recorded as 0.295 log 2 fold change in the assay on ISC-enriched organoids [3] (Dose 0.08 uM), 0.212 log 2 fold change in the assay on ISC-enriched organoids [3] (Dose 0.40 uM), −0.537 log 2 fold change with ISC-enriched organoids [3] (Dose 2.00 uM) and −1.003 log 2 fold change in the assay on ISC-enriched organoids [3] (Dose 10.00 uM). The Z.CTG with ISC-enriched organoids [3] (Dose 0.08 uM) was 0.706; with ISC-enriched organoids [3] (Dose 0.40 uM) it was 0.506; in the assay on ISC-enriched organoids [3] (Dose 2.00 uM) it was −1.283; with ISC-enriched organoids [3] (Dose 10.00 uM) it was −2.395.

Consider `O=C(NNc1ccccc1)c1ccncc1` [PluriSIn #1 (NSC 14613)], for which the Dose.FC.LYZ.NS in the assay on ISC-enriched organoids [1] (Dose 0.08 uM) is 0.083 log 2 fold change; in the assay on ISC-enriched organoids [1] (Dose 0.40 uM) it was 0.004 log 2 fold change; in the assay on ISC-enriched organoids [1] (Dose 2.00 uM) it was −0.107 log 2 fold change; in the assay on ISC-enriched organoids [1] (Dose 10.00 uM), −0.284 log 2 fold change. The Z.LYZ.NS in the assay with ISC-enriched organoids [1] (Dose 0.08 uM) is listed as 0.720; with ISC-enriched organoids [1] (Dose 0.40 uM) it was 0.039; in the assay with ISC-enriched organoids [1] (Dose 2.00 uM), −0.929; in the assay with ISC-enriched organoids [1] (Dose 10.00 uM) it was −2.475. Further, the Dose.FC.LYZ.S was 0.057 log 2 fold change in the assay on ISC-enriched organoids [2] (Dose 0.08 uM), −0.007 log 2 fold change in the assay with ISC-enriched organoids [2] (Dose 0.40 uM), −0.133 log 2 fold change in the assay with ISC-enriched organoids [2] (Dose 2.00 uM) and −0.372 log 2 fold change in the assay on ISC-enriched organoids [2] (Dose 10.00 uM). The Dose.FC.CTG was −0.146 log 2 fold change in the assay on ISC-enriched organoids [3] (Dose 0.08 uM), −0.095 log 2 fold change in the assay with ISC-enriched organoids [3] (Dose 0.40 uM), −0.433 log 2 fold change with ISC-enriched organoids [3] (Dose 2.00 uM) and −0.853 log 2 fold change with ISC-enriched organoids [3] (Dose 10.00 uM). For the same compound, the Z.CTG with ISC-enriched organoids [3] (Dose 0.08 uM) is on record as −0.349; in the assay with ISC-enriched organoids [3] (Dose 0.40 uM), −0.226; in the assay on ISC-enriched organoids [3] (Dose 2.00 uM) it was −1.035; in the assay with ISC-enriched organoids [3] (Dose 10.00 uM), −2.038.

As for `CC(C)(C)c1cc(NC(=O)Nc2ccc(-c3cn4c(n3)sc3cc(OCCN5CCOCC5)ccc34)cc2)no1` [Quizartinib (AC220)], the “Z.LYZ.NS (standard z score)” value is listed as 0.836 in the assay on ISC-enriched organoids [1] (Dose 0.08 uM), 0.341 in the assay on ISC-enriched organoids [1] (Dose 0.40 uM), −0.452 with ISC-enriched organoids [1] (Dose 2.00 uM) and −1.505 with ISC-enriched organoids [1] (Dose 10.00 uM). Moreover, the “Dose.FC.LYZ.NS (log 2 fold change)” value in the assay with ISC-enriched organoids [1] (Dose 0.08 uM) is 0.096; in the assay with ISC-enriched organoids [1] (Dose 0.40 uM), 0.039; with ISC-enriched organoids [1] (Dose 2.00 uM), −0.052; in the assay on ISC-enriched organoids [1] (Dose 10.00 uM), −0.173. Further, the “Dose.FC.LYZ.S (log 2 fold change)” value is 0.154 in the assay with ISC-enriched organoids [2] (Dose 0.08 uM), 0.083 in the assay on ISC-enriched organoids [2] (Dose 0.40 uM), −0.077 in the assay with ISC-enriched organoids [2] (Dose 2.00 uM) and −0.200 in the assay on ISC-enriched organoids [2] (Dose 10.00 uM). For the same compound, the “Z.CTG (standard z score)” value is given as 0.838 in the assay on ISC-enriched organoids [3] (Dose 0.08 uM), 0.355 in the assay on ISC-enriched organoids [3] (Dose 0.40 uM), −0.841 in the assay on ISC-enriched organoids [3] (Dose 2.00 uM) and −1.539 with ISC-enriched organoids [3] (Dose 10.00 uM). Besides, the “Dose.FC.CTG (log 2 fold change)” value in the assay on ISC-enriched organoids [3] (Dose 0.08 uM) is reported as 0.351; with ISC-enriched organoids [3] (Dose 0.40 uM) it was 0.149; with ISC-enriched organoids [3] (Dose 2.00 uM) it was −0.352; in the assay with ISC-enriched organoids [3] (Dose 10.00 uM), −0.644.
